We go through 3 molecules from patent US20150306107A1, “SAA Derivative Compound Restores eNOS And Inhibits Oxidative Stress-Induced A Diseases In Hypoxia” (JANSFAT BIOTECHNOLOGY CO., LTD., priority 2014, published 2015).

Assay [1] concerns ROCK II. The assay can be described thus: Streptozotocin (STZ) induced RhoA/ROCKII activation of rat carvenosa tissue. The assay is classed as in vivo. The settings on record: STZ model; 2.5 mg/kg; Control 100, STZ 142 ± 28. On the procedure: (§1) Electrophoresis was performed using 10% SDS-polyacrylamide gel (2 hr, 100 V, 40 mA, […] protein per lane). Separated proteins were transferred to PVDF membranes treated with 5% fat-free milk powder to block the nonspecific IgGs (90 min, 100 V) and incubated for one hour with a specific protein antibody. The blot was then incubated with anti-mouse or anti-goat IgG linked to alkaline phosphatase (1:1000) for 1 hr. Immunoreactive bands were visualized using horseradish peroxidase-conjugated secondary antibodies and subsequent electrochemiluminescence (ECL) detection (GE Healthcare Bio-Sciences Corp., Piscataway, N.J., U.S.A.). Mouse or rabbit monoclonal antibody of eNOS (Upstate, N.Y., U.S.A.), sGCα (Sigma-Adrich, CA, U.S.A., sGCβ (Santa Cruz, Calif., U.S.A.), PDE-5A (BD Tansduction, San Jose, Calif., U.S.A.), PKG (Calbiochem, San Diego, Calif., U.S.A.) ROCKII (Upstate, N.Y., U.S.A.), RhoA (Santa Cruze, Calif., U.S.A.) and the loading control protein β-actin (Sigma-Adrich, MO, U.S.A.) were used in our Western blot analysis.

Assay [2] deals with ROCK II. Briefly: Western blotting of ROCK II expression in isolated rat pulmonary artery ring, short-term (acute) hypoxia or normoxia. It counts as cell-based. The settings on record: acute hypoxia, Normoxia 100, Hypoxia 560 ± 21. The method, then:
(§2) In our in vitro short-term experiment, isolated rat pulmonary artery was grown under normoxia (20% O2) or hypoxia (1% O2) at 37° C. for 24 hrs as was previously done (Wu BN, et al. Int J Immunopathol Pharmacol 24:925, 2011). The heart weight and body weight ratio (HW/BW) of the rats treated with one of SPAAX-1, SPAAX-1 RX complex, Sildenafil or Sildenafil RX complex each measured on the 21st hypoxic day. All animal care and the experimental protocols of this study were approved by the Animal Care and Use Committee of the Kaohsiung Medical University. Male Wistar rats (200-250 g), provided by the National Laboratory Animal Breeding and Research Center (Taipei, Taiwan), were housed under constant temperature and controlled illumination. Food and water were available ad libitum.
(§3) Whole right lung tissues of hypoxia-treated and untreated rats were isolated and cut into small strips and placed into an extraction buffer (Tris 10 mM, pH 7.0, NaCl 140 mM, PMSF 2 mM, DTT 5 mM, NP-40 0.5%, pepstatin A 0.05 mM and leupeptin 0.2 mM) for protein extraction, and then centrifuged at 12,500 g for 30 min. To measure the expression levels of the proteins, the total proteins were extracted and Western blotting analysis was performed as described previously (Bivalacqua T J, et al., 2013, TJ PLoSONE 8: e68028. doi:10.1371/journal. pone.0068028). Briefly, the protein extract was boiled to a ratio of 4:1 with a sample buffer (Tris 100 mM, pH 6.8, glycerol 20%, SDS 4% and bromophenol blue 0.2%). Electrophoresis was performed using 10% SDS-polyacrylamide gel (2 hr, 100 V, 40 mA, […] protein per lane). Separated proteins were transferred to PVDF membranes treated with 5% fat-free milk powder to block the nonspecific IgGs (90 min, 100 V) and incubated for one hour with a specific protein antibody. The blot was then incubated with anti-mouse or anti-goat IgG linked to alkaline phosphatase (1:1000) for 1 hr. Immunoreactive bands were visualized using horseradish peroxidase-conjugated secondary antibodies and subsequent electrochemiluminescence (ECL) detection (GE Healthcare Bio-Sciences Corp., Piscataway, N.J., U.S.A.). Mouse or rabbit monoclonal antibody of eNOS (Upstate, N.Y., U.S.A.), sGCα (Sigma-Adrich, CA, U.S.A., sGCβ (Santa Cruz, Calif., U.S.A.), PDE-5A (BD Tansduction, San Jose, Calif., U.S.A.), PKG (Calbiochem, San Diego, Calif., U.S.A.) ROCKII (Upstate, N.Y., U.S.A.), RhoA (Santa Cruze, Calif., U.S.A.) and the loading control protein β-actin (Sigma-Adrich, MO, U.S.A.) were used in our Western blot analysis.
(§4) The Western blotting analysis measurements were performed as per lung tissue.

For assay [3], the system named is VEGF. Briefly: Western blotting of VEGF expression in isolated rat pulmonary artery ring, short-term (acute) hypoxia. It counts as cell-based. On the procedure: as §2, §3, §4
Assay [4] concerns eNOS. The assay can be described thus: Western blotting of eNOS expression in rat carvenosus strip, acute hypoxia. The assay is classed as cell-based. Set-up: unit not given here. In general terms: A western blot detects proteins with antibodies after separation by electrophoresis.
Assay [5] deals with ROCK II. The assay can be described thus: Cigarette smoking-induced Rho/ROCK activation of rat pulmonary artery ring. The assay is classed as in vivo. The note with it: Intraperitoneal (100 mg/kg) 1 h prior to smoke exposure, Non-Smoking control 100, Smoking 530 ± 34. The method, then: Intraperitoneal SAA complex (100 mg/kg in 200 μl of the solution) or 200 μl of saline (control) were given to animals through intraperitoneal injection 1 h prior to smoke exposure.
as §3

In assay [6] the test system is eNOS. The assay can be described thus: Western blotting of eNOS expression in isolated rat pulmonary artery ring, short-term (acute) hypoxia or normoxia. The note with it: acute hypoxia, Normoxia 100, Hypoxia 65.3 ± 7.8. It counts as cell-based. On the procedure: as §2, §3, §4
For assay [7], the system named is eNOS. Briefly: Streptozotocin (STZ) induced eNOS down-regulation of rat carvenosa tissue. It counts as in vivo. The note with it: STZ model; 2.5 mg/kg; Control 100, STZ 60 ± 7.3. On the procedure:
as §1

Assay [8] concerns VEGF. Briefly: Western blotting of VEGF expression in rat carvenosus strip, acute hypoxia. It counts as cell-based. Set-up: unit not given here.
Assay [9] concerns ROCK II. Briefly: Cigarette smoking-induced Rho/ROCK activation of rat pulmonary artery ring. The assay is classed as in vivo. The settings on record: Nebulization (2.5 mM), Non-Smoking control 100, Smoking 540 ± 28.
Where [10] appears, read: Normoxia 100, Hypoxia 62.4 ± 5.5.

Molecules are shown by their SMILES. Structures can show the parent of a compound that is named as a salt.

Consider `Cl.Cn1c(=O)c2c(ncn2CCN2CCN(c3ccccc3Cl)CC2)n(C)c1=O` [Reagent 3, 7-[2-[4-(2-chlorophenyl)piperazinyl]ethyl]-1,3-dimethylxanthine HCl Complex], for which, in the assay on ROCK II [1], the “ROCK II, Carvanosus tissue” value came out at 40 ± 5.2%. Besides, the “ROCK II expression, Pulmonary Artery Ring” value (from here on “ROCK II expression”) in the assay with ROCK II [2] is on record as 255 ± 4.6. The “VEGF expression, Pulmonary Artery Ring” value in the assay on VEGF [3] (Normoxia 100, Hypoxia 175 ± 14) is on record as 108 ± 8.2. In addition, the “eNOS expression, Carvenosus” value with eNOS [4] (setting [10]) is listed as 102 ± 5.8. The results for the “ROCK II of pulmonary artery ring” value in the assay with ROCK II [5] and in the assay on ROCK II [9] were 76 ± 5.3 and 76 ± 6.2, respectively. Besides, the “eNOS expression, Pulmonary Artery Ring” value in the assay on eNOS [6] is reported as 136 ± 4.6. Also, in the assay with eNOS [7], the “eNOS, Carvanosus tissue” value is given as 140 ± 5.3%. The “VEGF expression, Carvenosus” value in the assay on VEGF [8] (Normoxia 100, Hypoxia 170 ± 15) is listed as 110 ± 9.4.
As for `CCCc1nn(C)c2c(=O)[nH]c(-c3cc(S(=O)(=O)N4CCN(C)CC4)ccc3OCC)nc12.O=C1OC(C(O)CO)C(O)=C1O` [Reagent 1007, Sildenafil L-ascorbate complex], the “ROCK II, Carvanosus tissue” value with ROCK II [1] came to 38 ± 5.1%. In addition, the “ROCK II expression” value in the assay on ROCK II [2] (listed as 1007) came to 190 ± 7.7. Further, the “VEGF expression, Pulmonary Artery Ring” value in the assay with VEGF [3] (Normoxia 100, Hypoxia 175 ± 14, listed as 1007) is recorded as 92 ± 6.4. The “eNOS expression, Carvenosus” value with eNOS [4] (Normoxia 100, Hypoxia 62.4 ± 5.5, listed as 1007) was determined as 142 ± 6.9. Moreover, the “ROCK II of pulmonary artery ring” value in the assay on ROCK II [5] is recorded as 84 ± 8.2; in the assay with ROCK II [9], 66 ± 5.1. In addition, in the assay on eNOS [6] (listed as 1007), the “eNOS expression, Pulmonary Artery Ring” value worked out at 160 ± 5.8. Also, the “eNOS, Carvanosus tissue” value in the assay on eNOS [7] is recorded as 84 ± 8.2%. In the assay on VEGF [8] (Normoxia 100, Hypoxia 170 ± 15, listed as 1007), the “VEGF expression, Carvenosus” value came out at 94 ± 6.8.
For the molecule `CCCc1nn(C)c2c(=O)[nH]c(-c3cc(S(=O)(=O)N4CCN(C)CC4)ccc3OCC)nc12` [Reagent 1004, Sildenafil citrate complex, reference compound], the “ROCK II, Carvanosus tissue” value in the assay with ROCK II [1] is reported as 44 ± 3.8%. In the assay with ROCK II [2], the “ROCK II expression” value was determined as 205 ± 8.5. Further, the “VEGF expression, Pulmonary Artery Ring” value in the assay with VEGF [3] (Normoxia 100, Hypoxia 175 ± 14) is 110 ± 3.8. Besides, the “eNOS expression, Carvenosus” value in the assay on eNOS [4] (setting [10]) is given as 125 ± 6.9. Further, the figures for the “ROCK II of pulmonary artery ring” value in the assay with ROCK II [5] and in the assay on ROCK II [9] were 76 ± 6.8 and 64 ± 3.8, respectively. In the assay on eNOS [6], the “eNOS expression, Pulmonary Artery Ring” value is on record as 132 ± 6.6. The “eNOS, Carvanosus tissue” value in the assay on eNOS [7] is given as 74 ± 6.8%. In addition, the “VEGF expression, Carvenosus” value with VEGF [8] (Normoxia 100, Hypoxia 170 ± 15) is on record as 105 ± 9.2.
